Assay results: patent publication EP2411506B1, “TUMOR SUPPRESSION USING HUMAN PLACENTA-DERIVED INTERMEDIATE NATURAL KILLER CELLS AND IMMUNOMODULATORY COMPOUNDS” (Celularity, Inc., priority 2009, dated 2010)

What was measured:
cultured PINK cells = experiment: qRT-PCR gene expression analysis of lenalidomide- and pomalidomide-treated cultured PINK cells; type: cell-based, human; conditions: for expression of GM-CSF, increase: treated PINK cells vs untreated
From the text: RNA isolation and purification.
Quantitative real-time (qRT-PCR) analysis.

NK cells = experiment: Flow cytometry of GZMB-positive NK cells after pomalidomide treatment; type: cell-based, human; conditions: increase vs untreated
[1] = test system: day 21 cultivated placental NK cells; experiment: ELISA of perforin and granzyme B secretion from treated NK cells; type: cell-based, human; conditions: treated day 21 cultivated placental NK cells compared to controls
Description: In a separate experiment, secretion of perforin and granzyme B from pomalidomide- or lenalidomide-treated day 21 cultivated placental NK cells was evaluated by ELISA.

placental NK cells = experiment: Luminex (Five-Plex Antibody Kit) of GM-CSF and TNF-α secretion from treated NK cells; conditions: treated cultured NK cells compared to controls
Description: Secretion of GM-CSF and TNF-α was evaluated by Luminex utilizing a Five-Plex Antibody Kit.

[2] = treated vs untreated cultured PINK cells (Veh = 1)
[3] = treated vs untreated cultured PINK cells (Veh = 1.01)

Structure (SMILES) | expression of GM-CSF, increase (cultured PINK cells; qRT-PCR) | Fold change of gene expression: BAX (cultured PINK cells; [2]) | Fold change of gene expression: CCL5 (cultured PINK cells; [2]) | Fold change of gene expression: CCR5 (cultured PINK cells; [2]) | Fold change of gene expression: CD8A (cultured PINK cells; [2]) | Fold change of gene expression: CD68 (cultured PINK cells; [2]) | Fold change of gene expression: CSF2 (cultured PINK cells; [2]) | Fold change of gene expression: FAS (cultured PINK cells; [2]) | Fold change of gene expression: GUSB (cultured PINK cells; [2]) | Fold change of gene expression: IL2RA (cultured PINK cells; [2]) | increase in granzyme B secretion [1] [%] | increase in perforin secretion [1] [%] | increase in GM-CSF secretion (placental NK cells) [%] | increase in TNF-α secretion (placental NK cells) [%] | further results
Nc1cccc2c1C(=O)N(C1CCC(=O)NC1=O)C2=O (racemic) [pomalidomide, 4-amino-2-[(3RS)-2,6-dioxopiperidin-3-yl)-1H-isoindole-1,3(2H)-dione] | 396% ± 0.3% | 2.23 | 1.78 | 0.68 | 2.39 | 8.74 | 3.96 | 1.34 | 1.76 | 1.58 | 69 | 121 | 357 | 147 | increased granzyme B (GZMB) gene expression (cultured PINK cells; increase vs untreated, qRT-PCR): 60% ± 1.7%; Fold change of gene expression: ACTB (cultured PINK cells; [2]): 0.77; Fold change of gene expression: CCL2 (cultured PINK cells; [2]): 5.46; Fold change of gene expression: CCL3 (cultured PINK cells; [2]): 2.2; Fold change of gene expression: CD80 (cultured PINK cells; [2]): 1.59; Fold change of gene expression: CSF1 (cultured PINK cells; [2]): 1.41; Fold change of gene expression: ECE1 (cultured PINK cells; [2]): 1.56; Fold change of gene expression: GZMB (cultured PINK cells; [2]): 1.59; Fold change of gene expression: IL8 (cultured PINK cells; [2]): 1.62; Fold change of gene expression: LTA (cultured PINK cells; [2]): 2.88; Fold change of gene expression: PRF1 (cultured PINK cells; [2]): 1.17; Fold change of gene expression: PTGS2 (cultured PINK cells; [2]): 1.68; Fold change of gene expression: SKI (cultured PINK cells; [2]): 1.96; Fold change of gene expression: GNLY (cultured PINK cells; [3]): 1.96; Fold change of gene expression: IL1A (cultured PINK cells; [3]): 2.61; Fold change of gene expression: TBX21 (cultured PINK cells; [3]): 2.05; Fold change of gene expression: IL10 (cultured PINK cells; treated vs untreated cultured PINK cells (Veh = 1.02)): 1.52; increased percentage of GZMB-positive NK cells (NK cells): 25%
Nc1cccc2c1CN(C1CCC(=O)NC1=O)C2=O (centres unmarked) [lenalidomide, 3-(4'aminoisoindoline-1'-one)-1-piperidine-2,6-dione] | 232% ± 1.6% | 1.39 | 1.24 | 0.9 | 1.3 | 4.04 | 2.32 | 1.11 | 1.13 | 1.26 | 113 | 86 | 166 | 76 | Fold change of gene expression: TNFRSF18 (cultured PINK cells; [2]): 0.7
